Columns and labels:
Format in all cases: in vivo
[1] = tested on: barnyardgrass (Echinochloa crusgalli, ECHCG); experiment: Post-emergent evaluation; settings: for GR80: data gathered 15 days after treatment, probit analysis; for % growth reduction at the lowest rate tested: 15 days after treatment
Procedure: (§1) Seeds of the desired test plant species were planted in Grace-Sierra MetroMix® 306 planting mixture, which typically has a pH of 6.0 to 6.8 and an organic matter content of about 30 percent, in plastic pots with a surface area of 64 square centimeters. When required to ensure good germination and healthy plants, a fungicide treatment and/or other chemical or physical treatment was applied. The plants were grown for 7-21 days in a greenhouse with an approximate 15 hr photoperiod which was maintained at about 23-29° C. during the day and 22-28° C. during the night. Nutrients and water were added on a regular basis and supplemental lighting was provided with overhead metal halide 1000-Watt lamps as necessary. The plants were employed for testing when they reached the first or second true leaf stage.
(§2) A weighed amount, determined by the highest rate to be tested, of each test compound was placed in a 20 mL glass vial and was dissolved in 4 mL of a 97:3 v/v (volume/volume) mixture of acetone and dimethyl sulfoxide (DMSO) to obtain concentrated stock solutions. […] The concentrated stock solutions obtained were diluted with an aqueous mixture containing acetone, water, isopropyl alcohol, DMSO, Atplus 411F crop oil concentrate, and Triton X-155 surfactant in a 48.5:39:10:1.5:1.0:0.02 v/v ratio to obtain spray solutions of known concentration. The solutions containing the highest concentration to be tested were prepared by diluting 2 mL aliquots of the stock solution with 13 mL of the mixture and lower concentrations were prepared by serial dilution of the stock solution. Approximately 1.5 mL aliquots of each solution of known concentration were sprayed evenly onto each of the test plant pots using a DeVilbiss atomizer driven by compressed air pressure of 2 to 4 psi ([…]) to obtain thorough coverage of each plant. Control plants were sprayed in the same manner with the aqueous mixture. In this test an application rate of 1 ppm results in the application of approximately 1 g/Ha.
(§3) The treated plants and control plants were placed in a greenhouse as described above and watered by sub-irrigation to prevent wash-off of the test compounds. […] Species abbreviations as described for Table I with the following additions: soybean (Glycine max, GLXMA), rape (Brassica napus, BRSNN), chickweed (Stellaria media, STEME), cocklebur (Xanthium strumarium XANST), lambsquarters (Chenopodium album, CHEAL), violet (Viola tricolor, VIOTR), bindweed (Polygonum convolvulus, POLCO), spurge (Euphorbia heterophylla, EPHHL), Canada thistle (Cirsium arvense, CIRAR), corn (Zea mays, ZEAMX), rice (Oryza sativa, ORYSA), wheat (Triticum aestivum, TRZAS), crabgrass (Digitaria sanguinalis, DIGSA), shattercane (Sorghum vulgare, SORVU) and yellow nutsedge (Cyperus esculentus, CYPES).
(§4) By applying the well-accepted probit analysis as described by J. Berkson in Journal of the American Statistical […], 48, 565 (1953) and by D. Finney in “Probit Analysis” Cambridge University Press (1952), similar data can be used to calculate GR80 values, which are defined as growth reduction factors that correspond to the effective dose of herbicide required to kill or control 80 percent of a target plant. Species abbreviations are as previously defined.

[2] = tested on: chickweed (Stellaria media, STEME); experiment: Post-emergent evaluation; settings: data gathered 15 days after treatment, probit analysis
Procedure: as §1, §2, §3, §4

[3] = tested on: giant foxtail (Setaria faberi, SETFA); experiment: Post-emergent evaluation; settings: for GR80: data gathered 15 days after treatment, probit analysis; for % growth reduction at the lowest rate tested: 15 days after treatment
Procedure: as §1, §2, §3, §4

[4] = tested on: morningglory (Ipomoea hederacea, IPOHE); experiment: Post-emergent evaluation; settings: data gathered 15 days after treatment, probit analysis
Procedure: as §1, §2, §3, §4

[5] = tested on: shattercane (Sorghum vulgare, SORVU); experiment: Post-emergent evaluation; settings: for GR80: data gathered 15 days after treatment, probit analysis
Procedure: as §1, §2, §3, §4

[6] = tested on: velvetleaf (Abutilon theophrasti, ABUTH); experiment: Post-emergent evaluation; settings: data gathered 15 days after treatment, probit analysis
Procedure: as §1, §2, §3, §4

[7] = tested on: violet (Viola tricolor, VIOTR); experiment: Post-emergent evaluation; settings: data gathered 15 days after treatment, probit analysis
Procedure: as §1, §2, §3, §4

[8] = tested on: crabgrass (Digitaria sanguinalis, DIGSA); experiment: Post-emergent evaluation; settings: data gathered 15 days after treatment, probit analysis
Procedure: as §1, §2
(§5) The treated plants and control plants were placed in a greenhouse as described above and watered by sub-irrigation to prevent wash-off of the test compounds. After 2 weeks the condition of the test plants as compared with that of the untreated plants was determined visually and scored on a scale of 0 to 100 percent where 0 corresponds to no injury and 100 corresponds to complete kill. Species abbreviations as described for Table I with the following additions: soybean (Glycine max, GLXMA), rape (Brassica napus, BRSNN), chickweed (Stellaria media, STEME), cocklebur (Xanthium strumarium XANST), lambsquarters (Chenopodium album, CHEAL), violet (Viola tricolor, VIOTR), bindweed (Polygonum convolvulus, POLCO), spurge (Euphorbia heterophylla, EPHHL), Canada thistle (Cirsium arvense, CIRAR), corn (Zea mays, ZEAMX), rice (Oryza sativa, ORYSA), wheat (Triticum aestivum, TRZAS), crabgrass (Digitaria sanguinalis, DIGSA), shattercane (Sorghum vulgare, SORVU) and yellow nutsedge (Cyperus esculentus, CYPES).
as §4

[9] = tested on: yellow nutsedge (Cyperus esculentus, CYPES); experiment: Post-emergent evaluation; settings: data gathered 15 days after treatment, probit analysis
Procedure: as §1, §2, §5, §4

[10] = tested on: crabgrass (Digitaria sanguinalis, DIGSA); experiment: Synergistic herbicidal activity, foliar track sprayer; settings: nonanoic acid 1120 g ae/ha alone, 14 days, 1% crop oil concentrate
Procedure: (§6) Methylidene mevalonate alone and in combination with nonanoic acid was applied to the foliage of rapidly growing plant material utilizing a track sprayer calibrated to deliver an application volume of 187 L/ha. These treatments were applied to both broadleaf and grass weed species. All treatments contained 1% crop oil concentrate. Assessment of herbicidal activity was performed visually relative to untreated controls after 14 days incubation in the greenhouse. Species abbreviations are as previously defined.

[11] = tested on: lambsquarters (Chenopodium album, CHEAL); experiment: as above; settings: nonanoic acid 1120 g ae/ha alone, 14 days, 1% crop oil concentrate
Procedure: as §6

[12] = tested on: morningglory (Ipomoea hederacea, IPOHE); experiment: as above; settings: nonanoic acid 1120 g ae/ha alone, 14 days, 1% crop oil concentrate
Procedure: as §6

[13] = tested on: wild oats (Avena fatua, AVEFA); experiment: as above; settings: nonanoic acid 1120 g ae/ha alone, 14 days, 1% crop oil concentrate
Procedure: as §6

[14] = tested on: test plant species; experiment: Biological assays of the enantiomers (herbicidal activity); settings: resolved enantiomers
Procedure: as §1, with “The plants were employed for testing when they reached the first or second true leaf stage.” left out
A weighed amount, determined by the highest rate to be tested, of each test compound was placed in a 20 mL glass vial and was dissolved in 4 mL of a 97:3 v/v (volume/volume) mixture of acetone and dimethyl sulfoxide (DMSO) to obtain concentrated stock solutions. […]
The treated plants and control plants were placed in a greenhouse as described above and watered by sub-irrigation to prevent wash-off of the test compounds. After 2 weeks the condition of the test plants as compared with that of the untreated plants was determined visually and scored on a scale of 0 to 100 percent where 0 corresponds to no injury and 100 corresponds to complete kill. […]

Structure (SMILES) | GR80 [1] [g ae/ha] | % growth reduction at the lowest rate tested [1] [%] | GR80 [2] [g ae/ha] | GR80 [3] [g ae/ha] | % growth reduction at the lowest rate tested [3] [%] | GR80 [4] [g ae/ha] | GR80 [5] [g ae/ha] | GR80 [6] [g ae/ha] | GR80 [7] [g ae/ha] | GR80 [8] [g ae/ha] | GR80 [9] [g ae/ha] | GR80 ([1]; Potassium Salt) [g ae/ha] | GR80 ([2]; Potassium Salt) [g ae/ha] | GR80 ([3]; Potassium Salt) [g ae/ha] | GR80 ([4]; Potassium Salt) [g ae/ha] | GR80 ([5]; Potassium Salt) [g ae/ha] | GR80 ([6]; Potassium Salt) [g ae/ha] | GR80 ([7]; Potassium Salt) [g ae/ha] | GR80 ([8]; Potassium Salt) [g ae/ha] | GR80 ([9]; Potassium Salt) [g ae/ha] | further results
C=C(CO)C(C)(O)CC(=O)[O-].[K+] (racemic) | < 375 | 98 | 2089 | < 375 | 95 | 375 | 400 | 720 | 1768 | 1003 | 603 |  |  |  |  |  |  |  |  |  | 
C=C(CO)C(C)(O)CC(=O)[O-].[K+] (single isomer, unassigned; (-)) [(−)-4-Methylidene Mevalonate, Potassium Salt] |  |  |  |  |  |  |  |  |  |  |  | >1500 | >1500 | >1500 | >1500 | >1500 | >1500 | >1500 | >1500 | >1500 | 
CCCCCCCCC(=O)O [Nonanoic Acid, nonanoic acid, reference compound] |  |  |  |  |  |  |  |  |  |  |  |  |  |  |  |  |  |  |  |  | Actual Injury % growth reduction [10]: 0%; Actual Injury % growth reduction [11]: 0%; Actual Injury % growth reduction [12]: 0%; Actual Injury % growth reduction [13]: 0%
C=C(CO)C(C)(O)CC(=O)[O-].[Na+] (racemic) | < 375 | 98 | 1358 | < 375 | 97 | 416 | < 375 | 965 | 2290 | 774 | 375 |  |  |  |  |  |  |  |  |  | % growth reduction at the lowest rate tested ([5]; lowest rate tested, 15 days after treatment): 93%
C=C1COC(=O)CC1(C)O (centres unmarked) [Methylidene Mevalonolactone] | < 375 | 100 | 3032 | 430 |  | 725 | 615 | 2266 | 2473 | 834 | 834 |  |  |  |  |  |  |  |  |  | 
C=C(CO)C(C)(O)CC(=O)[O-].[K+] (single isomer, unassigned; (+)) [(+)-4-Methylidene Mevalonate, Potassium Salt] |  |  |  |  |  |  |  |  |  |  |  | 351 | 1349 | 183 | 341 | 490 | 1135 | 1865 | 916 | 429 | herbicidal activity [14]: herbicidal activity was manifested

From patent US7393812B2, “Methylidene mevalonates and their use as herbicides” (Dow AgroSciences LLC, priority 2004, dated 2008)
